According to the supplement of paper PMC10307832:

Assays:
Assay in all cases: relative viability (nuclei count vs DMSO), 5 days (fraction); higher = more cells survive
QS11 + Alpelisib = compound: C1CC2=C(C1)C=C(C=C2)OC3=NC(=C4C(=N3)N(C=N4)CC5=CC=C(C=C5)C6=CC=CC=C6)N[C@@H](CC7=CC=CC=C7)CO [QS11] + Cc1nc(NC(=O)N2CCC[C@H]2C(N)=O)sc1-c1ccnc(C(C)(C)C(F)(F)F)c1 [Alpelisib] (partner 2 µM)
Summary of the method: (§1)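 Relative viability was taken as the ratio of nuclei in treated wells to nuclei in vehicle wells. Lung cancer cell lines in 1536-well plates received compounds by pin tool one day after seeding, either one drug alone or a fixed anchor-drug dose plus five library-drug doses (not always all listed) in √10 steps. Nuclei were counted on 4× images after 5 days of treatment, and values are medians of duplicate plates.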

QS11 + Olaparib = compound: C1CC2=C(C1)C=C(C=C2)OC3=NC(=C4C(=N3)N(C=N4)CC5=CC=C(C=C5)C6=CC=CC=C6)N[C@@H](CC7=CC=CC=C7)CO [QS11] + O=C(c1cc(Cc2n[nH]c(=O)c3ccccc23)ccc1F)N1CCN(C(=O)C2CC2)CC1 [Olaparib] (partner 8 µM)
Summary of the method: as §1

AZ628 + Trametinib = compound: CC1=C(C=C(C=C1)NC(=O)C2=CC(=CC=C2)C(C)(C)C#N)NC3=CC4=C(C=C3)N=CN(C4=O)C [AZ628] + CC(=O)Nc1cccc(-n2c(=O)n(C3CC3)c(=O)c3c(Nc4ccc(I)cc4F)n(C)c(=O)c(C)c32)c1 [Trametinib] (partner 0.02 µM)
Summary of the method: as §1

AZ628 + Lapatinib = compound: CC1=C(C=C(C=C1)NC(=O)C2=CC(=CC=C2)C(C)(C)C#N)NC3=CC4=C(C=C3)N=CN(C4=O)C [AZ628] + CS(=O)(=O)CCNCc1ccc(-c2ccc3ncnc(Nc4ccc(OCc5cccc(F)c5)c(Cl)c4)c3c2)o1 [Lapatinib] (partner 2 µM)
Summary of the method: as §1

Cell Line | relative viability (QS11 + Alpelisib; first compound 0.08 µM) | relative viability (QS11 + Alpelisib; first compound 0.253 µM) | relative viability (QS11 + Alpelisib; first compound 0.8 µM) | relative viability (QS11 + Alpelisib; first compound 2.53 µM) | relative viability (QS11 + Alpelisib; first compound 8 µM) | relative viability (QS11 + Olaparib; first compound 0.08 µM) | relative viability (QS11 + Olaparib; first compound 0.253 µM) | relative viability (QS11 + Olaparib; first compound 0.8 µM) | relative viability (QS11 + Olaparib; first compound 2.53 µM) | relative viability (QS11 + Olaparib; first compound 8 µM) | relative viability (AZ628 + Trametinib; first compound 0.08 µM) | relative viability (AZ628 + Trametinib; first compound 0.253 µM) | relative viability (AZ628 + Trametinib; first compound 0.8 µM) | relative viability (AZ628 + Trametinib; first compound 2.53 µM) | relative viability (AZ628 + Trametinib; first compound 8 µM) | relative viability (AZ628 + Lapatinib; first compound 0.08 µM) | relative viability (AZ628 + Lapatinib; first compound 0.253 µM) | relative viability (AZ628 + Lapatinib; first compound 0.8 µM) | relative viability (AZ628 + Lapatinib; first compound 2.53 µM) | relative viability (AZ628 + Lapatinib; first compound 8 µM)
HOP-62 | 0.968 | 0.927 | 0.956 | 0.85 | 0.535 | 0.477 | 0.46 | 0.31 | 0.319 | 0.382 | 0.197 | 0.155 | 0.15 | 0.15 | 0.188 | 1.12 | 0.978 | 1.01 | 0.957 | 0.631
LC-2-ad | 0.93 | 0.853 | 0.698 | 1.08 | 0.779 | 0.668 | 0.719 | 0.551 | 0.706 | 0.781 | 0.731 | 0.669 | 0.529 | 0.601 | 0.427 | 0.949 | 0.867 | 0.446 | 0.72 | 0.474
LK-2 | 1.01 | 1.15 | 1.21 | 0.868 | 1.59 | 0.569 | 0.764 | 1.03 | 0.734 | 0.856 | 0.332 | 0.468 | 0.251 | 0.27 | 0.301 | 1.06 | 0.56 | 0.885 | 0.799 | 0.537
LOU-NH91 | 0.687 | 0.636 |  | 0.691 | 0.697 | 0.893 | 0.9 | 0.876 | 0.937 | 0.998 | 0.795 | 0.787 | 0.713 | 0.726 | 0.668 | 0.776 | 0.738 | 0.724 | 0.67 | 0.626
LU99A | 0.486 | 0.528 | 0.596 | 0.367 | 0.405 | 0.253 | 0.311 | 0.27 | 0.258 | 0.253 | 0.296 | 0.277 | 0.245 | 0.244 | 0.288 | 0.973 | 0.966 | 1.11 | 0.943 | 0.573
LXF-289 | 1.07 | 1.05 | 0.764 | 0.906 | 0.85 | 1.03 | 1.1 | 0.823 | 0.95 | 0.963 | 0.603 | 0.477 | 0.472 | 0.525 | 0.38 | 0.882 | 0.884 | 0.79 | 0.843 | 0.58
NCI-H23 | 0.647 | 0.638 | 0.557 | 0.508 | 0.69 | 0.297 | 0.226 | 0.245 | 0.269 | 0.264 | 0.178 | 0.29 | 0.211 | 0.191 | 0.23 | 1.18 | 0.958 | 0.698 | 0.722 | 0.528
NCI-H322M | 0.84 | 0.83 | 0.87 | 0.863 | 0.867 | 0.715 | 0.947 | 0.802 | 0.846 | 1.06 | 0.473 | 0.511 | 0.489 | 0.536 | 0.617 | 0.674 | 0.737 | 0.747 | 0.646 | 0.657
NCI-H358 | 0.914 | 0.857 | 1.02 | 1.5 | 1.35 | 0.635 | 0.62 | 0.566 | 0.633 | 0.618 | 0.113 | 0.112 | 0.104 | 0.102 | 0.134 | 0.446 | 0.422 | 0.404 | 0.432 | 0.339
NCI-H460 | 0.515 | 0.498 | 0.554 | 0.3 | 0.0919 | 0.422 | 0.435 | 0.36 | 0.416 | 0.277 | 0.161 | 0.0829 | 0.0419 | 0.0397 | 0.0115 | 1.08 | 0.868 | 0.853 | 0.87 | 0.559
NCI-H520 |  | 0.912 | 0.921 | 0.92 | 0.986 | 0.347 | 0.304 | 0.394 | 0.313 | 0.301 | 0.469 | 0.459 | 0.273 | 0.23 | 0.16 | 0.901 | 0.857 | 0.743 | 0.778 | 0.766
NCI-H596 | 0.4 | 0.494 | 0.467 | 0.468 | 0.443 | 0.724 | 0.563 | 0.634 | 0.606 | 0.61 | 0.779 | 0.711 | 0.622 | 0.786 | 0.756 | 1.03 | 1.08 | 1.11 | 1.08 | 1.27
NCI-H647 | 1.24 | 1.25 | 1.02 | 1.08 | 0.862 | 0.676 | 0.523 | 0.541 | 0.604 | 0.664 | 0.277 | 0.233 | 0.22 | 0.22 | 0.22 | 1.25 | 1.02 | 0.982 | 1.19 | 0.894
NCI-H650 | 0.988 | 1 | 1.14 | 0.909 | 1.18 | 0.316 | 0.364 | 0.375 | 0.316 | 0.418 | 0.568 | 0.393 | 0.357 | 0.365 | 0.282 | 1.2 | 0.778 | 1.08 | 1.2 | 0.898
NCI-H661 | 0.657 | 0.599 | 0.658 | 0.637 | 0.646 | 0.708 | 0.791 | 0.637 | 0.745 | 0.71 | 0.509 | 0.426 | 0.413 | 0.377 | 0.535 | 0.401 | 0.502 | 0.435 | 0.498 | 0.464
